Experimental data: patent US20250179057A1, “MEK IMMUNE ONCOLOGY INHIBITORS AND THERAPEUTIC USES THEREOF” (Immuneering Corporation, priority 2022, published 2025)
≈ marks a conversion by molar mass, not a printed value. Counter-ions that a name gives are not always drawn. Like-named read-outs stand apart in the source and are kept apart here.

Legend:
hERG = hERG (Homo sapiens, UniProt Q12809); test: cell-based
Method: Materials and Methods: CHO cells (transformed with adenovirus 5 DNA; Stably transfected with full length hERG cDNA) were cultured in Ham's F-12 supplemented with 10% fetal bovine serum, 100 U/mL penicillin G sodium, 100 μg/mL streptomycin sulfate and 400 μg/mL Zeocin. Before testing, cells in culture dishes were rinsed with Hank's Balanced Salt Solution, detached with accutase.
HEPES-buffered intracellular solution (Charles River proprietary) for whole cell recordings was loaded into the intracellular compartment of the SP384PE. Extracellular buffer (HB-PS) and Cell suspension (in HB-PS) were pipetted into the extracellular compartment of the SP384PE chip. After establishment of a whole-cell configuration, membrane currents were recorded using patch clamp amplifier in the SP384PE system.
Test article (TA) concentrations (eight (8) concentrations of each test article were evaluated) were applied to naïve cells (n=4, where n=replicates/concentration). Each application consisted of addition of 40 μL of 2× concentrated test article solution to the total 80 μL of final volume of the extracellular well of the SP384PE chip. Duration of exposure to each compound concentration was five (5) minutes.
hERG current was measured using stimulus voltage patterns with fixed amplitudes: activation pre-pulse (TP1) to +40 mV for 2 s and test pulse (TP2) to −40 mV for 2 s from a holding potential of −80 mV. hERG current was measured as the outward peak current at TP2 (tail current). The stimulation was repeated with 0.1 Hz frequency during 2 min as baseline and 5 min after TA application.
Data acquisition and analyses were performed using the SP384PE system operation software. The decrease in current amplitude after TA application was used to calculate the percent block relative to control.
Tonic Block effect was calculated as:
[formula] • where ITP2, baseline and ITP2, TA were the outward peak K^+ currents elicited by the TP2 before application and 5 min after application of a test article, respectively.
The data were corrected for run-down:
[formula] • where % VC and % PC were the mean values of the current block with the vehicle and positive controls, respectively.
Concentration-response data were fitted to an equation of the following form:
[formula] • where [Test] was the concentration of test article, IC50 was the concentration of the test article producing half-maximal block, N was the Hill coefficient, % VC was the mean current block at the vehicle control and % Block was the percentage of ion channel current inhibited at each concentration of a test article. Nonlinear least squares fits were solved with the XLfit add-in for Excel (Microsoft, Redmond, WA).
In this study, hERG Ion channel block of IC50 values were determined. […] In brief, CHO cells were cultured in Ham's F-12 supplemented with 10% fetal bovine serum, 100 U/mL penicillin G sodium, 100 μg/mL streptomycin sulfate and 400 μg/mL Zeocin. Before testing, cells in culture dishes were rinsed with Hank's Balanced Salt Solution, detached with accutase. […] Test article (TA) concentrations were applied to naïve cells (n=4, where n=replicates/concentration). Each application consisted of addition of 40 μL of 2× concentrated test article solution to the total 80 μL of final volume of the extracellular well of the SP384PE chip. Duration of exposure to each compound concentration was five (5) minutes. hERG current was measured using stimulus voltage patterns with fixed amplitudes: activation pre-pulse (TP1) to +40 mV for 2 s and test pulse (TP2) to −40 mV for 2 s from a holding potential of −80 mV. hERG current was measured as the outward peak current at TP2 (tail current). The stimulation was repeated with 0.1 Hz frequency during 2 min as baseline and 5 min after TA application. Data acquisition and analyses were performed using the SP384PE system operation software.

[1] = Kinetic solubility (PBS pH 7.4; 4 hr); assay type: physicochemical
Method: The plates were shaken for 4 h at room temperature in an Eppendorf Thermomixer. After incubation, the plates were centrifuged for 20 minutes at 4680 rpm. From the supernatant, 150 μL was transferred to a new 96 well plate and 50 μL DMSO was added to ensure continued dissolution. Samples were measured on LC-UV at injection volumes of 1 and 8 μL. Peak areas were determined and compared to peak areas obtained using calibration curves of the test compounds in DMSO.

[2] = Hepatocyte stability, cynomolgus monkey; assay type: in vitro ADME; conditions: 0.5 million cells/ml; for half-life at 2 μM: cynomolgus monkey hepatocytes; for CLint scaled at 2 μM: cynomolgus monkey, hepatocytes
Method: In this study, human, cynomolgus monkey, beagle dog, wistar hannover rat, and balb/c mouse hepatocyle stability was determined.

[3] = Caco-2 bidirectional permeability (absorption & efflux); conditions: human
CYP3A4 = CYP3A4 (Homo sapiens, UniProt P08684); test: CYP450 panel inhibition in human liver microsomes, 3A4 (midazolam / testosterone); conditions: 10 μM; for CYP-3A4 (Testosterone) mean percentage CYP inhibition: substrate testosterone; for CYP-3A4 (Midazolam) mean percentage CYP inhibition: substrate midazolam
CYP2B6 = target: T1, CYP2B6 (Homo sapiens, UniProt P20813); test: CYP450 panel inhibition in human liver microsomes, 2B6 (bupropion); conditions: 10 μM, substrate bupropion
T1 sequence (P20813 1-491): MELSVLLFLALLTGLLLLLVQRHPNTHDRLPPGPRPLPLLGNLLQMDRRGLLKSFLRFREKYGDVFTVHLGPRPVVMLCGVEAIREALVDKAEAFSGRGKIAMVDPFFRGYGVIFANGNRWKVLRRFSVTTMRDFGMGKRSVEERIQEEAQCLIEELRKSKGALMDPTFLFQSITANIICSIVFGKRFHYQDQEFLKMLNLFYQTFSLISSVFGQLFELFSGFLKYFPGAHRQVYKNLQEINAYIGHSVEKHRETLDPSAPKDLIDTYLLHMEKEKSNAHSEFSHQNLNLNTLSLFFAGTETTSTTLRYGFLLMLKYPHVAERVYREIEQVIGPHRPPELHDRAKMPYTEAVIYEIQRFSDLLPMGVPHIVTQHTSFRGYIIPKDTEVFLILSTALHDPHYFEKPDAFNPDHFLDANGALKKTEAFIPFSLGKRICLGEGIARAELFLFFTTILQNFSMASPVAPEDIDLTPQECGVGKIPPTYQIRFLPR

CYP2C19 = CYP2C19 (Homo sapiens, UniProt P33261); test: CYP450 panel inhibition in human liver microsomes, 2C19 (mephenytoin); conditions: 10 μM, substrate mephenytoin
CYP2D6 = CYP2D6 (Homo sapiens, UniProt P10635); test: CYP450 panel inhibition in human liver microsomes, 2D6 (dextromethorphan); conditions: 10 μM, substrate dextromethorphan
[4] = PBS buffer, pH 7.4, aqueous buffer, kinetic from dmso stock, free base (Table 19), read-out: Kinetic Solubility
[5] = read-out: CLint (L/hr/kg) (converted)
[6] = free base (Table 19), read-out: Kinetic Solubility

CYP2C19, sequence (P33261 whole entry): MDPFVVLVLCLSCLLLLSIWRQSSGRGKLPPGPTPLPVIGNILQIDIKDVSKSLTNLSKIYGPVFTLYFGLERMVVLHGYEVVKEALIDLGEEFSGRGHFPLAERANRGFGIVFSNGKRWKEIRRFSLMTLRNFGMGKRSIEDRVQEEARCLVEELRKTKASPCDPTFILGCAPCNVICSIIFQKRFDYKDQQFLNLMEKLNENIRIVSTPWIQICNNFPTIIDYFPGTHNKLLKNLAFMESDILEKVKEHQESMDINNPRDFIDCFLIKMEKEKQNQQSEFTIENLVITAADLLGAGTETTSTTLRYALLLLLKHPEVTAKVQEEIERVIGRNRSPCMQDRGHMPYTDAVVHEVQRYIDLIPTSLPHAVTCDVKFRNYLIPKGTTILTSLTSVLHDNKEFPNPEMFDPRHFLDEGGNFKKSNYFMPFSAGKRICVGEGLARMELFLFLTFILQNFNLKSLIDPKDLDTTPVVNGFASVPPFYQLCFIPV
CYP3A4, sequence (P08684 whole entry): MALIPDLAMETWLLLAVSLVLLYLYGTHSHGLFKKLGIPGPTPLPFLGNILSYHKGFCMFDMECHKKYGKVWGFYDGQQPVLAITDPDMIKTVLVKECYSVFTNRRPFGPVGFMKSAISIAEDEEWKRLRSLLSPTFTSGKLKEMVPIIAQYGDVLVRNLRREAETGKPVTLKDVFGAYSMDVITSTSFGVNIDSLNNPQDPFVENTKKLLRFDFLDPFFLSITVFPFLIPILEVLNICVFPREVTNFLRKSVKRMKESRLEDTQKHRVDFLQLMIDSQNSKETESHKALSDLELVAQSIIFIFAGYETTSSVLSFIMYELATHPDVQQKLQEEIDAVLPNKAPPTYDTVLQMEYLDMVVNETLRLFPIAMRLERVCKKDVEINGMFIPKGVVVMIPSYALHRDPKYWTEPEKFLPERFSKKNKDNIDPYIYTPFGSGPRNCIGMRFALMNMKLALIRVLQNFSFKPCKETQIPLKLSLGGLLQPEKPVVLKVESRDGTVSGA
CYP2D6, sequence (P10635 whole entry): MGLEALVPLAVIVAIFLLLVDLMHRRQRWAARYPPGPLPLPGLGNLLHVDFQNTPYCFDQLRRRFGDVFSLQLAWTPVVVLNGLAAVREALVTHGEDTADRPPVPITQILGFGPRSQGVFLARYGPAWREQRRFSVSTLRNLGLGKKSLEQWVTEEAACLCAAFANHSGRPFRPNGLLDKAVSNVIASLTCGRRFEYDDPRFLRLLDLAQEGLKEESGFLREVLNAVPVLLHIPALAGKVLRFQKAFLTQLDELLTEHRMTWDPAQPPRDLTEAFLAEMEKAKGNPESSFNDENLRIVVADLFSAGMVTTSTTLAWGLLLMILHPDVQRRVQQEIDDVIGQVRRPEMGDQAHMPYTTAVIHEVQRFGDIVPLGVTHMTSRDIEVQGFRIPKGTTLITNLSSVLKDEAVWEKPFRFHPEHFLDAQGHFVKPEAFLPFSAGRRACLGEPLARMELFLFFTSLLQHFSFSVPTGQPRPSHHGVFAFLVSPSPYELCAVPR
hERG, sequence (Q12809 whole entry): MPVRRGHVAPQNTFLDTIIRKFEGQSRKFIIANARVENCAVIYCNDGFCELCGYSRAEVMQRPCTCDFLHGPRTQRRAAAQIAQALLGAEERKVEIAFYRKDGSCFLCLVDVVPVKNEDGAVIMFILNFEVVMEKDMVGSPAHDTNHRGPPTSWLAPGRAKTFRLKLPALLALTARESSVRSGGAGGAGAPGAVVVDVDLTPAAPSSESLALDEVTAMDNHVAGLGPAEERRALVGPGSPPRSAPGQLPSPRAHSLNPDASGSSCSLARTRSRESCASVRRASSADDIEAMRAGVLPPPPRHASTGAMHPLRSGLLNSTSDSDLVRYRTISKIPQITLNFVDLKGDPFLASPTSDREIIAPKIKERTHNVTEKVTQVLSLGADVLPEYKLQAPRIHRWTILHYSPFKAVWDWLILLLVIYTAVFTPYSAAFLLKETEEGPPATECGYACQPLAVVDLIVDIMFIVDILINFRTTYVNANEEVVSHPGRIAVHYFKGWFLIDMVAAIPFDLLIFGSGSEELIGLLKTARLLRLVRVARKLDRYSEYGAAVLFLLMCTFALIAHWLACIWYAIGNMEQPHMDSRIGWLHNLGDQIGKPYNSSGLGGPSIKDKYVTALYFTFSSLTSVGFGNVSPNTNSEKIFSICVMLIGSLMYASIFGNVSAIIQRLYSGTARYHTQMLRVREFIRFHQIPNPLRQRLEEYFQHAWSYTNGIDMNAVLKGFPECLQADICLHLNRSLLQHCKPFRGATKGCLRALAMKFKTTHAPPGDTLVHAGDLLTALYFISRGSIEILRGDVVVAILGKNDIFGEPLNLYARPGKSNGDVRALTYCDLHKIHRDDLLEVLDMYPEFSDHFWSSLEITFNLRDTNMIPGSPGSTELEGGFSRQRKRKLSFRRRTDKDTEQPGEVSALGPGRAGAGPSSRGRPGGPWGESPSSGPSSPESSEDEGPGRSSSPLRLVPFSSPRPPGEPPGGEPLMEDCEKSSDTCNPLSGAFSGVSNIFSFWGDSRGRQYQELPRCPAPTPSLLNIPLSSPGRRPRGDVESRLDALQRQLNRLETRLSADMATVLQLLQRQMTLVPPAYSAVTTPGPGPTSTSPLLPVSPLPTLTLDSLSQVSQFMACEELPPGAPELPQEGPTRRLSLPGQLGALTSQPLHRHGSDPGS

SMILES	IC50 (hERG) [µM]	solubility kinetic at 4 h [1, 4] [µM]	half-life at 2 μM [2] [h]	CLint scaled at 2 μM [2, 5] [L/h/kg]	CLint scaled at 2 μM ([2]; read-out: CLint (mL/min/kg)) [L/h/kg]	Papp A→B at 2 h, 10 μM [3] [×10⁻⁶ cm/s]	Papp B→A at 2 h, 10 μM [3] [×10⁻⁶ cm/s]	efflux ratio at 2 h, 10 μM [3]	CYP-3A4 (Testosterone) mean percentage CYP inhibition (CYP3A4) [%]	CYP-3A4 (Midazolam) mean percentage CYP inhibition (CYP3A4) [%]	solubility kinetic at 4 h [1, 6] [µM]	CYP-2B6 (Bupropion) mean percentage CYP inhibition (CYP2B6) [%]	CYP-2C19 (Mephenytoin) mean percentage CYP inhibition (CYP2C19) [%]	CYP-2D6 (Dextromethorphan) mean percentage CYP inhibition (CYP2D6) [%]	IC50 (hERG; read-out: IC50 (μM), hERG ion channel block, Example 46, 5 min exposure per concentration) [µM]	IC50 at 5 min (hERG; human) [µM]	solubility kinetic at 4 h ([1]; PBS buffer, aqueous buffer, kinetic from dmso stock, PBS pH = 7.4, 4 hr (Table 7), read-out: Kinetic Solubility (PBS pH = 7.4; 4 hr)) [µM]
CCS(=O)(=O)Nc1cccc(Cc2c(CN3CCNCC3)c3cc(Cl)c(OC(=O)N(C)C)cc3oc2=O)c1Cl [Compound 257, 6-chloro-3-(2-chloro-3-(ethylsulfonamido)benzyl)-2-oxo-4-(piperazin-1-ylmethyl)-2H-chromen-7-yl dimethylcarbamate hydrochloride]	8.4	> 80	2.98	1.88	1.88	4.08	22.1	5.41	66.0								
CNS(=O)(=O)Nc1cccc(Cc2c(CN(C)C)c3ccc(OC(=O)N(C)C)cc3oc2=O)c1Cl [Compound 274, 3-(2-chloro-3-((N-methylsulfamoyl)amino)benzyl)-4-((dimethylamino)methyl)-2-oxo-2H-chromen-7-yl dimethylcarbamate]	> 30	78 (≈ 40.8 µg/mL)	0.985	5.7	5.69	16.8	8.95	0.533	50.4	20.1							
CNS(=O)(=O)Nc1cccc(Cc2c(CN(C)C)c3cc(F)c(OC(=O)N(C)C)cc3oc2=O)c1F [Compound 25]									47.2	48.5	>80	16.0	26.5	5.7			
CCS(=O)(=O)Nc1cccc(Cc2c(CN(C)C)c3ccc(OC(=O)N(C)C)cc3oc2=O)c1F [Compound 120]									12.6	11.4	>80	13.4	14.2	−1.9			
CNS(=O)(=O)Nc1nccc(Cc2c(CN(C)C)c3ccc(OC(=O)N(C)C)cc3oc2=O)c1F [Compound 124]									62.6	63.2		25.5	50.6	10.8	4.2		
Cn1cnc2c(F)c(Nc3ccc(Br)cc3Cl)c(C(=O)NOCCO)cc21 [Reference-1, Selumetinib]																> 30	36 (≈ 16.5 µg/mL)
CCN(C)Cc1c(Cc2cccc(NS(=O)(=O)NC)c2F)c(=O)oc2cc(OC(=O)N(C)C)c(F)cc12 [Compound 238]	19.4	40 (≈ 21.5 µg/mL)	0.953	5.89	5.89	14.2	13.5	0.956									
CCN(C)Cc1c(Cc2cccc(NS(=O)(=O)NC)c2Cl)c(=O)oc2cc(OC(=O)N(C)C)ccc12 [Compound 245, 3-(2-chloro-3-((N-methylsulfamoyl)amino)benzyl)-4-((ethyl(methyl)amino)methyl)-2-oxo-2H-chromen-7-yl dimethylcarbamate]	16.1	28 (≈ 15 µg/mL)	0.407	13.8	13.8	11.9	6.87	0.578	72.8	42.3							
CNS(=O)(=O)Nc1cccc(Cc2c(CN3CCNCC3)c3cc(Cl)c(OC(=O)N(C)C)cc3oc2=O)c1Cl [Compound 256, 6-chloro-3-(2-chloro-3-((N-methylsulfamoyl)amino)benzyl)-2-oxo-4-(piperazin-1-ylmethyl)-2H-chromen-7-yl dimethylcarbamate hydrochloride]	21.6	> 80	2.25	2.5	2.5	3.59	13.4	3.73	69.2								
CNS(=O)(=O)Nc1cccc(Cc2c(CN3CCNCC3)c3cc(F)c(OC(=O)N(C)C)cc3oc2=O)c1F [Compound 134]									52.6	44.5		10.3	20.6	0.5			
CNS(=O)(=O)Nc1cccc(Cc2c(CN3CCNCC3)c3ccc(OC(=O)N(C)C)cc3oc2=O)c1Cl [Compound 246, 3-(2-chloro-3-((N-methylsulfamoyl)amino)benzyl)-2-oxo-4-(piperazin-1-ylmethyl)-2H-chromen-7-yl dimethylcarbamate hydrochloride]	> 30		6.75	0.832	0.834	4.16	6.99	1.68	24.6								
